Results: publication PMC6412019, “Discovery of NV-5138, the first selective Brain mTORC1 activator” (Scientific Reports, 2019)

What was measured:
[1] = target: T1, Sestrin2 (Homo sapiens, UniProt P58004); experiment: Thermal shift assay of purified Sestrin2; type: binding; set-up: Full-length, codon-optimized human Sestrin2 was cloned into a pMAL6H -C5XT bacterial expression vector; His6-MBP (TEV-cleavable) (N, cleaved yes); made in house; host or cells: Escherichia coli LOBSTR (DE3); settings: average +/- SD, n = 3, read-out: Average Tm shift; for ΔTm at 1 µM: compound concentration 1 µM; for ΔTm at 10 µM: compound concentration 10 µM; for ΔTm at 100 µM: compound concentration 100 µM
T1 sequence (P58004 1-480): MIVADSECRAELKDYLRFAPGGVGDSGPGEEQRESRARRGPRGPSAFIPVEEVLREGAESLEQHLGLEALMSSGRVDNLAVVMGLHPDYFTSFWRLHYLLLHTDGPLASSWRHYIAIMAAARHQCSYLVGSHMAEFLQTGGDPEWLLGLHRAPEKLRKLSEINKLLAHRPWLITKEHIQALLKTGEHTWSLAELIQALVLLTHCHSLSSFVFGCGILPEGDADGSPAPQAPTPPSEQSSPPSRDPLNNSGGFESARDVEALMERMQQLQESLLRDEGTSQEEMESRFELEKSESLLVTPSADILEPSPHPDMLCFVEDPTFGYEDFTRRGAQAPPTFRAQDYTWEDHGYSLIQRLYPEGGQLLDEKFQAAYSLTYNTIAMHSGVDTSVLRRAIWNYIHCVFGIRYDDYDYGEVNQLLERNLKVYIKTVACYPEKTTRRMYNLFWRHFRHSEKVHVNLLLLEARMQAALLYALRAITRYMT
Procedure: Accordingly, we synthesized novel binding ligands incorporating these structural features. These compounds were tested for Sestrin2 binding using a thermal shift assay and for their ability to activate mTORC1 in leucine-starved Human Embryonic Kidney (HEK)-293T cells. These studies led to the identification of NV-5138 – a novel small molecule activator of mTORC1 signaling (Fig. 1a).
Full-length, codon-optimized human Sestrin2 was cloned into a pMAL6H -C5XT bacterial expression vector. Protein was purified onto a HisTrap FF crude column (GE Healthcare) followed by anion exchange chromatography then further purified via size-exclusion chromatography. Further details can be found in Supplementary Information.
Full-length, codon-optimized human Sestrin2 was cloned into a pMAL6H -C5XT bacterial expression vector such that Sestrin2 became N-terminally fused with a Tobacco Etch Virus nuclear-inclusion-a endopeptidase (TEV)–cleavable His6-MBP tag. This vector was transformed into Escherichia coli LOBSTR (DE3) cells (Kerafast) ^1. Cells were grown at 37 °C to 0.6 OD, then protein production was induced with 0.2 mM IPTG at 18 °C for 12–14 h. Cells were collected by centrifugation at 6,000g, resuspended in lysis buffer (50 mM Tris-HCl, pH 8.5, 400 mM NaCl, 5 mM MgCl2, 1 mM dithiothreitol (DTT), 0.2% CHAPS, 10% glycerol and 1 tablet of protease inhibitor tablets per 50 ml (Complete Inhibitor tablets from Roche w/o EDTA)), homogenized and sonicated. The lysate was cleared by centrifugation at 15,000g for 45 min. The soluble fraction (~250 ml) was loaded onto a HisTrap FF crude column (GE Healthcare) at 2 ml/min followed by washing with lysis buffer at 4 ml/min. After washing, the protein was eluted in lysis buffer containing 300 mM imidazole at 4 ml/min. Fractions corresponding to the Sestrin2 protein were identified via SDS-PAGE and pooled. The eluted Sestrin2 was then incubated with TEV protease and dialyzed overnight at 4 °C into 50 mM Tris-HCl, pH 8.5, 400 mM NaCl, 5 mM MgCl2, 1 mM dithiothreitol (DTT), 0.1% CHAPS, 10% glycerol. To separate the N-terminal tag from the cleaved Sesrin2, from cleaved sample was then re-applied to the HisTrap FF crude column and flow-through collected. The protein was then subjected to anion exchange chromatography on an 8ml Mono Q column (GE Healthcare) with a linear NaCl gradient and then further purified via size-exclusion chromatography on a Superdex S200 26/60 column (GE Healthcare) equilibrated in running buffer (50 mM Hepes pH 7.4, 200 mM NaCl, 1 mM DTT, 2.5 mM MgCl2, and 5% glycerol).

[2] = system: HeLa cells; experiment: 14C-leucine protein incorporation assay in HeLa cells; type: cell-based, human; settings: for effect on incorporation of 14C-leucine into precipitated proteins: 30 min labeling, CHX 10 ug/ml
Procedure: Since NV-5138 is an amino acid, we performed two different experiments to rule out any potential liabilities that could arise from the incorporation of NV-5138 into proteins. We first determined whether NV-5138 substitutes for any branched-chain amino acid or methionine into newly synthesized proteins using liquid chromatography followed by tandem mass spectroscopy (LC-MS/MS). NV-5138 (100 µM) or vehicle was incubated with serum and leucine-starved 293T cells for 6 hours followed by proteomic analysis by mass spectrometry.
After incubation, cells were harvested and lysed in Tris/HCl 10 mM pH 7.4 plus 1% NP40. Lysate were mixed with water and 20% trichloroacetic acid (1:1:2) and incubated on ice for 2 h to precipitate the protein. Proteins were collected by centrifugation, solubilized in NaOH, placed in scintillation fluid and read on a Wallac Microbeta Trilux 2450 with a 2-min count. Scintillation values were normalized as the percentage of the counts from the DMSO-treated wells.

ΔTm at 1 µM [1]	ΔTm at 10 µM [1]	ΔTm at 100 µM [1]	SMILES	effect on incorporation of 14C-leucine into precipitated proteins [2]	effect on 14C-leucine incorporation at high doses ([2]; high doses)
0.61 ± 0.59 °C	3.64 ± 0.41 °C	6.49 ± 0.2 °C	CC(C)C[C@H](N)C(=O)O [Leucine, L-leucine, reference compound]	blocked incorporation	–
0.57 ± 0.22 °C	3.27 ± 0.16 °C	6.17 ± 0.18 °C	CC(C)(C[C@H](N)C(=O)O)C(F)F [NV-5138, (S)-2-amino-5,5-difluoro-4,4-dimethylpentanoic acid]	did not show any competition	appeared to increase
